Measurements as given in paper PMC5708337 (2017).

Tests used:
[1] = tested on: c-MycCBiotin (DNA, i motif) CCTTCCCCACCCTCCCCACCCTCCCCA; experiment: SPR, single concentration; settings: Na+ (100 mM NaCl, 10 mM sodium cacodylate); pH 5.5, 0.05% Tween-20, 5% DMSO; 50 μM compound
[2] = tested on: DSbiotin (DNA, duplex) GGCATAGTGCGTGGGCGTTAGC/GCTAACGCCCACGCACTATGCC; experiment: SPR, single concentration; settings: Na+ (100 mM NaCl, 10 mM sodium cacodylate); pH 5.5, 0.05% Tween-20, 5% DMSO; 50 μM compound
[3] = tested on: hTeloCBiotin (DNA, i motif) TAACCCTAACCCTAACCCTAACCC; experiment: SPR, single concentration; settings: Na+ (100 mM NaCl, 10 mM sodium cacodylate), pH 5.5, 0.05% Tween-20, 5% DMSO, 50 μM compound; for binding: NB
[4] = tested on: hTeloC (DNA, i motif) TAACCCTAACCCTAACCCTAACCC; experiment: fluorescent intercalator displacement; settings: Na+ (10 mM sodium cacodylate); pH 5.5; thiazole orange 2 μM displaced; 1 μM DNA
[5] = tested on: hTeloCBiotin (DNA, i motif) TAACCCTAACCCTAACCCTAACCC; experiment: SPR; settings: Na+ (100 mM NaCl, 10 mM sodium cacodylate); pH 5.5, 0.05% Tween-20, 5% DMSO
[6] = tested on: c-MycCBiotin (DNA, i motif) CCTTCCCCACCCTCCCCACCCTCCCCA; experiment: SPR; settings: Na+ (100 mM NaCl, 10 mM sodium cacodylate); pH 5.5, 0.05% Tween-20, 5% DMSO
[7] = tested on: DSbiotin (DNA, duplex) GGCATAGTGCGTGGGCGTTAGC/GCTAACGCCCACGCACTATGCC; experiment: SPR; settings: Na+ (100 mM NaCl, 10 mM sodium cacodylate); pH 5.5, 0.05% Tween-20, 5% DMSO

| Structure (SMILES) | %Rmax [1] [%] | %Rmax [2] [%] | %Rmax [3] [%] | DC50 [4] [µM] | binding [3] | Kd [5] [µM] | Kd [6] [µM] | Kd [7] [µM] |
| --- | --- | --- | --- | --- | --- | --- | --- | --- |
| CCN(CC)Cc1cc(Nc2ccnc3cc(Cl)ccc23)ccc1O | 31 | 59 | 15 | – | – | – | – | – |
| CN(C)c1ccc(O)c2c1C[C@H]1C[C@H]3[C@H](N(C)C)C(O)=C(C(N)=O)C(=O)[C@@]3(O)C(O)=C1C2=O | 36 | 69 | 29 | – | – | – | – | – |
| CCN(CC)CCOc1ccc2c(c1)C(=O)c1cc(OCCN(CC)CC)ccc1-2 | 420 | 811 | 116 | 2.4 | – | – | – | – |
| CC1=NCCc2c1[nH]c1cc(O)ccc21 | 64 | 123 | – | – | no | – | – | – |
| O=C1c2c(O)ccc(O)c2C(=O)c2c(NCCNCCO)ccc(NCCNCCO)c21 | 2534 | 4894 | 2125 | 1.8 | – | – | – | – |
| Nc1ccc(N=Nc2ccccc2)c(N)n1 | 71 | 137 | 38 | – | – | – | – | – |
| O=C1c2ccc(O)c(O)c2C(=O)c2c(O)ccc(O)c21 | 49 | 95 | – | – | no | – | – | – |
| NC[C@H]1O[C@H](O[C@H]2[C@H](O)[C@@H](O[C@H]3O[C@H](CO)[C@@H](O)[C@H](N)[C@H]3O)[C@H](N)C[C@@H]2N)[C@H](N)C[C@@H]1O | 121 | 233 | 325 | 2.9 | – | 17 ± 2.0 | 13 ± 1.8 | 18 ± 1.1 |
